Reference: ChEMBL document CHEMBL1201862, “PubChem BioAssay data set” (2004)
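Briefly, cells in 96-well plates were exposed to five compound concentrations for 48 h, and endpoints were estimated by linear interpolation. At the GI50, growth is halved.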 The source made the active and inactive calls. Cut-off read from the data, not from the text of the source: active = GI50 up to about 1.1 µM and inactive = higher.

Assays:
Test in all cases: NCI anticancer screen, dose series, 48 h
[1] = system: HCT-116
[2] = system: Malme-3M
[3] = system: OVCAR-4
[4] = system: K562
[5] = system: SK-MEL-2
[6] = system: UACC-62
[7] = system: UO-31
[8] = system: HCT-15
[9] = system: HOP-18
[10] = system: SK-MEL-5
[11] = system: NCI-H23
[12] = system: CCRF-CEM
[13] = system: RPMI-8226
[14] = system: RXF 393
[15] = system: 786-0
[16] = system: A549
[17] = system: NCI-H226
[18] = system: CAKI-1
[19] = system: SF-295
[20] = system: DMS-114
[21] = system: NCI-H522
[22] = system: XF498
[23] = system: M19-MEL
[24] = system: HCC 2998
[25] = system: EKVX
[26] = system: NCI-H460
[27] = system: HL-60
[28] = system: M14
[29] = system: ACHN
[30] = system: SF-268
[31] = system: KM12
[32] = system: LOX IMVI
[33] = system: MOLT-4
[34] = system: KM-20L2
[35] = system: SNB-78
[36] = system: SW-620
[37] = system: TK-10
[38] = system: OVCAR-5
[39] = system: UACC-257
[40] = system: HOP-62
[41] = system: SF-539
[42] = system: COLO 205
[43] = system: SNB-75
[44] = system: LXFL 529
[45] = system: SNB-19
[46] = system: DMS-273
[47] = system: A498
[48] = system: DLD-1
[49] = system: SN12C
[50] = system: HT-29
[51] = system: IGROV-1
[52] = system: U-251
[53] = system: OVCAR-8
[54] = system: HOP-92
[55] = system: SK-MEL-28
[56] = system: SR
[57] = system: SK-OV-3

Measured: GI50

CCOc1ccc(C(CN2CCOCC2)C(C)=O)cc1OC (stereo not given)
10 µM: [8]
inactive: [1] 20.4 µM | [2] 18.5 µM | [3] 18.3 µM | [4] 3.1 µM | [5] 14.3 µM | [6] 17.3 µM | [7] 14.6 µM | [9] 16.2 µM | [10] 20.1 µM | [11] 18.6 µM | [12] 9.4 µM | [13] 11.5 µM | [14] 21 µM | [15] 3.53 µM | [16] 24.6 µM | [17] 17.7 µM | [18] 10.8 µM | [19] 39.6 µM | [20] 15.7 µM | [21] 1.22 µM | [22] 25.3 µM | [23] 18.9 µM | [24] 18.4 µM | [25] 22.6 µM | [26] 18.4 µM | [27] 3.78 µM | [28] 17.5 µM | [29] 14.2 µM | [30] 19.7 µM | [31] 15.3 µM | [32] 17 µM | [33] 21.9 µM | [34] 18.8 µM | [35] 20.7 µM | [36] 16.4 µM | [37] 17.1 µM | [38] 19 µM | [39] 22.1 µM | [40] 21 µM | [41] 16 µM | [42] 6.62 µM | [43] 18.7 µM | [44] 4.46 µM | [45] 17.1 µM | [46] 11.3 µM | [47] 26.5 µM | [48] 10.6 µM | [49] 17.4 µM | [50] 19.6 µM | [51] 25.2 µM | [52] 18 µM | [53] 20.1 µM | [54] 18.9 µM | [55] 19.1 µM

O=C1c2ccccc2N2OC3(N4CCOCC4)CCCC3C12c1ccccc1 (stereo not given)
inactive: [1] > 100 µM | [2] > 100 µM | [3] > 100 µM | [4] > 100 µM | [6] 93.1 µM | [7] > 100 µM | [9] > 100 µM | [10] > 100 µM | [11] > 100 µM | [12] > 100 µM | [13] > 100 µM | [14] 49.2 µM | [15] > 100 µM | [16] > 100 µM | [17] > 100 µM | [19] > 100 µM | [20] > 100 µM | [21] 86.1 µM | [22] > 100 µM | [23] > 100 µM | [24] > 100 µM | [25] > 100 µM | [27] 77.1 µM | [28] > 100 µM | [29] > 100 µM | [30] > 100 µM | [56] > 100 µM | [33] > 100 µM | [34] > 100 µM | [35] > 100 µM | [36] > 100 µM | [39] > 100 µM | [40] > 100 µM | [41] > 100 µM | [42] > 100 µM | [43] > 100 µM | [44] > 100 µM | [45] > 100 µM | [46] > 100 µM | [47] > 100 µM | [48] > 100 µM | [49] > 100 µM | [50] > 100 µM | [51] > 100 µM | [52] > 100 µM | [53] > 100 µM | [54] 53.3 µM | [55] > 100 µM | [57] > 100 µM
> 100 µM: [8]
